Test results reported in patent US8017326B2, “Methods of modulating cell death based on the Bit-1/AES regulatory pathway” (Sanford-Burnham Medical Research Institute, priority 2002, dated 2011).
Where a SMILES comes first, the peptide text is derived from it. Where no end group is shown, it is not given here. The star is where a group is joined. Cbz = O=C(OCc1ccccc1)*; CH2F = FC*

Key:
CHO cells = experiment: Deletion analysis, cell death by trypan blue exclusion; assay type: cell-based, Chinese hamster; conditions: 10 μg construct, trypan blue exclusion 48 hours after transfection
Procedure: The amino-terminal portion of Bit1 (residues 16-40) is hydrophobic and can serve as a transmembrane domain or signal peptide sequence. When the hydrophobicity of this portion was reduced by substitution of glycine 22 and glycine 38 by serine, Bit1 apoptotic activity was reduced.
Deletion analysis was performed as follows. The indicated deletion mutants were cloned into vector pEGFP-C1, and 10 μg of each plasmid construct transfected into CHO cells. Cell death was measured by trypan blue exclusion 48 hours after transfection.
To delineate the pro-apoptotic domain of AES, a series of AES deletion mutants was prepared as amino-terminal fusions with GFP in vector pEGFP-C1. Various AES deletion constructs (10 μg) were transfected into CHO cells, and cell death measured by trypan blue exclusion 48 hours after transfection.

[1] = tested on: Bit1-AES complex in HeLa cells; experiment: Co-immunoprecipitation of Bit1-AES complex, cells plated on fibronectin or collagen; assay type: cell-based; conditions: HeLa cells plated on fibronectin versus collagen, quantification of gel bands, 24 h after transfection
Procedure: In these experiments, HeLa cells were plated on fibronectin or collagen before transfection with pCMV-Myc-Bit1 (3 μg) and pCMV-flag-AES (3 μg) plasmids. Cell lysates were harvested 24 h after transfection and immunoprecipitated with anti-flag and immunoblotted with anti-myc. The total amount of DNA used was adjusted to 10 μg with empty vector in each transfection. The expression of the transfected AES in each sample was confirmed by immunoblotting 20 μl of the whole extract with anti-flag as is shown in FIG. 6C, lower boxes in B and C.
Thus, a low level of Bit1/AES complex correlated with cell survival and a high level is associated with apoptosis.

[2] = tested on: Bit1-induced apoptosis in HEK 293 cells; experiment: Extracellular matrix proteins and Bit1-induced apoptosis, trypan blue staining; assay type: cell-based, human; conditions: HEK 293 cells plated onto coated dishes, 10 μg Bit1 plasmid, 48 hours
Procedure: Several extracellular matrix proteins were assayed for the ability to modulate Bit1-mediated apoptosis. Cells were plated onto bacterial culture dishes pre-coated overnight with fibronectin (Chemicon; Temecula; CA), vitronectin (SIGMA; St. Louis, Mo.) or type I collagen (SIGMA), and transfected and assayed for apoptosis as described above.
To analyze integrin involvement in protecting attached cells against the pro-apoptotic effect of Bit1, Bit1 cell lines expressing either α5β1 or αvβ1 as the main fibronectin receptor were compared. The two cell lines attach equally well to fibronectin but, like cytoplasmically truncated α5β1, αvβ1 fails to protect cells against apoptosis induced by serum deprivation (Zhang et al., supra, 1995; and Matter and Ruoslahti, supra, 2001).
Experiments with extracellular matrix proteins were performed as follows. Cells were plated onto uncoated tissue culture plates or onto bacterial culture plates coated with fibronectin, vitronectin or collagen, and allowed to attach in the presence of serum. The attachment was equal on all of these surfaces. The cells were then transfected with 10 μg of Bit1 expression plasmid; where indicated, cells were treated with a control IgG of unrelated specificity or monoclonal anti-human α5 antibody (Chemicon), both at 10 μg/ml. Cell death was measured by trypan blue staining 48 hours after the transfection.

Bit1 in HeLa cells = experiment: Localization of C-terminally tagged Bit1 in cells induced to undergo apoptosis; assay type: cell-based; conditions: 0.5 μM staurosporin
Text: Colocalization of Bit1 with an endoplasmic reticulum or golgi marker was not observed.

[3] = tested on: Bit1-induced apoptosis in 293T cells; experiment: Caspase inhibitors and anti-apoptotic proteins against Bit1; assay type: cell-based, human; conditions: cytosolic Bit1
Text: (§1) 293T cells were also co-transfected with Bit1 or AES and the caspase inhibitor proteins crmA and XIAP.

[4] = tested on: Bit1-induced apoptosis in HEK 293 cells; experiment: Co-transfection of Bit1 with anti-apoptotic proteins; assay type: cell-based, human; conditions: HEK 293 cells co-transfected with Bit1
Procedure: Co-transfections were performed with cells plated on non-coated dishes transfected with 5 μg Bit1 plasmid alone or together with 10 μg dominant negative (DN) R-Ras, or activated H-Ras plasmid (Zou et al., Proc. Natl. Acad. Sci. USA 96: 13813-13818 (1999)). […] Expression of the transfected proteins was confirmed by immunoblotting. Apoptosis was assayed as described above.

[5] = tested on: AES-induced apoptosis in 293T cells; experiment: Caspase inhibitors and anti-apoptotic proteins against AES; assay type: cell-based, human
Text: as §1

AES residues 57-88: AES deletion mutant, amino-terminal fusion with GFP (SEQ ID NO:9) (MQRHYVMYYEMSYGLNIEMHKQAEIVKRLNGI; also: amino-terminal fusion with GFP; UniProt Q08117 57-88, looked up, fragment)
pro-apoptotic activity of deletion constructs (CHO cells): efficiently induced apoptosis

AES residues 1-56: AES deletion mutant, amino-terminal fusion with GFP (MMFPQSRHSGSSHLPQQLKFTTSDSCDRIKDEFQLLQAQYHSLKLECDKLASEKSE; cysteine pairing not given here; also: amino-terminal fusion with GFP; UniProt Q08117 1-56, looked up, fragment)
pro-apoptotic activity of deletion constructs (CHO cells): no apoptotic activity

fibronectin
reduction in Bit1/AES complex on fibronectin [1]: approximately 75%
protection from Bit1-induced apoptosis [2]: largely protected

CN[C@@H]1C[C@H]2O[C@@](C)([C@@H]1OC)n1c3ccccc3c3c4c(c5c6ccccc6n2c5c31)C(=O)NC4 [staurosporin]
localization of C-terminally tagged Bit1 (Bit1 in HeLa cells): released into the cytoplasm

AES residues 57-105: AES deletion mutant, amino-terminal fusion with GFP (SEQ ID NO:8) (MQRHYVMYYEMSYGLNIEMHKQAEIVKRLNGICAQVLPYLSQEHQQQVL; also: amino-terminal fusion with GFP; UniProt Q08117 57-105, looked up, fragment)
pro-apoptotic activity of deletion constructs (CHO cells): efficiently induced apoptosis

Bcl-2: anti-apoptotic protein, expression construct pcDNA3-Bcl-2
effect on apoptosis induced by Bit1 [3]: no effect
effect on apoptosis induced by Bit1 [4]: little or no effect
effect on apoptosis induced by AES [5]: partially effective

collagen: type I collagen coated on culture dishes (SIGMA)
protection from Bit1-induced apoptosis [2]: could not confer the same protective effect

COC(=O)C[C@H](NC(=O)[C@H](C)NC(=O)[C@@H](NC(=O)OCc1ccccc1)C(C)C)C(=O)CF [z-VAD-fmk] (Cbz-Val-Ala-Asp(OMe)-CH2F)
effect on apoptosis induced by Bit1 [3]: ineffective
effect on apoptosis induced by AES [5]: ineffective
